What was measured:
Assay in all cases: NCI-60 SRB cytotoxicity screen
Format in all cases: cell-based
HL-60(TB) (leukemia) = details: Homo sapiens, single dose 10 μM, read-out: growth inhibition (GI%)
K-562 (leukemia) = details: Homo sapiens; K-652 [sic], single dose 10 μM; read-out: growth inhibition (GI%)
MOLT-4 (leukemia) = details: Homo sapiens; MOLT-4, single dose 10 μM; read-out: growth inhibition (GI%)
[1] = tested on: A549/ATCC (non-small cell lung cancer); details: Homo sapiens, single dose 10 μM, read-out: growth inhibition (GI%)
[2] = tested on: EKVX (non-small cell lung cancer); details: Homo sapiens, single dose 10 μM, read-out: growth inhibition (GI%)
[3] = tested on: NCI-H23 (non-small cell lung cancer); details: Homo sapiens; NCI-H23, single dose 10 μM; read-out: growth inhibition (GI%)
[4] = tested on: NCI-H322M (non-small cell lung cancer); details: Homo sapiens, single dose 10 μM, read-out: growth inhibition (GI%)
[5] = tested on: NCI-H522 (non-small cell lung cancer); details: Homo sapiens; NCI-H522, single dose 10 μM; read-out: growth inhibition (GI%)
COLO 205 (colon cancer) = details: Homo sapiens; COLO 205, single dose 10 μM; read-out: growth inhibition (GI%)
HCC-2998 (colon cancer) = details: Homo sapiens; HCC-2998, single dose 10 μM; read-out: growth inhibition (GI%)
HCT-116 (colon cancer) = details: Homo sapiens; HCT-116, single dose 10 μM; read-out: growth inhibition (GI%)
HCT-15 (colon cancer) = details: Homo sapiens; HCT-15, single dose 10 μM; read-out: growth inhibition (GI%)
SW-620 (colon cancer) = details: Homo sapiens; SW-620, single dose 10 μM; read-out: growth inhibition (GI%)
SF-268 (CNS cancer) = details: Homo sapiens; SF-268, single dose 10 μM; read-out: growth inhibition (GI%)
SF-539 (CNS cancer) = details: Homo sapiens; SF-539, single dose 10 μM; read-out: growth inhibition (GI%)
SNB-19 (CNS cancer) = details: Homo sapiens; SNB-19, single dose 10 μM; read-out: growth inhibition (GI%)
SNB-75 (CNS cancer) = details: Homo sapiens, SNB-75, SNB-75, single dose 10 μM; read-out: growth inhibition (GI%)
U251 (CNS cancer) = details: Homo sapiens, U-251; U251, single dose 10 μM; read-out: growth inhibition (GI%)
MALME-3M (melanoma) = details: Homo sapiens, single dose 10 μM, read-out: growth inhibition (GI%)
SK-MEL-2 (melanoma) = details: Homo sapiens; SK-MEL-2, single dose 10 μM; read-out: growth inhibition (GI%)
SK-MEL-28 (melanoma) = details: Homo sapiens; SK-MEL-28, single dose 10 μM; read-out: growth inhibition (GI%)
UACC-62 (melanoma) = details: Homo sapiens; UACC-62, single dose 10 μM; read-out: growth inhibition (GI%)
OVCAR-3 (ovarian cancer) = details: Homo sapiens; OVCAR-3, single dose 10 μM; read-out: growth inhibition (GI%)
OVCAR-5 (ovarian cancer) = details: Homo sapiens; OVCAR-5, single dose 10 μM; read-out: growth inhibition (GI%)
[6] = tested on: NCI/ADR-RES (ovarian cancer); details: Homo sapiens, single dose 10 μM, read-out: growth inhibition (GI%)
SK-OV-3 (ovarian cancer) = details: Homo sapiens; SK-OV-3, single dose 10 μM; read-out: growth inhibition (GI%)
786-0 (renal cancer) = details: Homo sapiens; 786-0, single dose 10 μM; read-out: growth inhibition (GI%)
ACHN (renal cancer) = details: Homo sapiens, single dose 10 μM, read-out: growth inhibition (GI%)
CAKI-1 (renal cancer) = details: Homo sapiens; CAKI-1, single dose 10 μM; read-out: growth inhibition (GI%)
RXF 393 (renal cancer) = details: Homo sapiens; RXF 393, single dose 10 μM; read-out: growth inhibition (GI%)
TK-10 (renal cancer) = details: Homo sapiens; TK-10, single dose 10 μM; read-out: growth inhibition (GI%)
PC-3 (prostate cancer) = details: PC-3, single dose 10 μM; read-out: growth inhibition (GI%)
MCF7 (breast cancer) = details: Homo sapiens; MCF7, single dose 10 μM; read-out: growth inhibition (GI%)
BT-549 (breast cancer) = details: Homo sapiens; BT-549, single dose 10 μM; read-out: growth inhibition (GI%)

| Compound | inhibition at 10 µM (HL-60(TB) (leukemia)) [%] | inhibition at 10 µM (K-562 (leukemia)) [%] | inhibition at 10 µM (MOLT-4 (leukemia)) [%] | inhibition at 10 µM [1] [%] | inhibition at 10 µM [2] [%] | inhibition at 10 µM [3] [%] | inhibition at 10 µM [4] [%] | inhibition at 10 µM [5] [%] | inhibition at 10 µM (COLO 205 (colon cancer)) [%] | inhibition at 10 µM (HCC-2998 (colon cancer)) [%] | inhibition at 10 µM (HCT-116 (colon cancer)) [%] | inhibition at 10 µM (HCT-15 (colon cancer)) [%] | inhibition at 10 µM (SW-620 (colon cancer)) [%] | inhibition at 10 µM (SF-268 (CNS cancer)) [%] | inhibition at 10 µM (SF-539 (CNS cancer)) [%] | inhibition at 10 µM (SNB-19 (CNS cancer)) [%] | inhibition at 10 µM (SNB-75 (CNS cancer)) [%] | inhibition at 10 µM (U251 (CNS cancer)) [%] | inhibition at 10 µM (MALME-3M (melanoma)) [%] | inhibition at 10 µM (SK-MEL-2 (melanoma)) [%] | further results |
| --- | --- | --- | --- | --- | --- | --- | --- | --- | --- | --- | --- | --- | --- | --- | --- | --- | --- | --- | --- | --- | --- |
| CCc1cccc2cc(C=CC(=O)c3ccc(OC)c(OC)c3)c(Cl)nc12 [Compound 3b, 3-(2-Chloro-8-ethylquinolin-3-yl)-1-(3,4-dimethoxyphenyl)prop-2-en-1-one] | 61 | 55.7 | 49.2 | 43.5 | < 10 | 20.2 | 22.4 | 41.5 | 22.4 | 17.7 | 62.8 | 20.4 | 72.2 | < 10 | 99.4 | 54.4 | > 100 | 65.2 | < 10 | < 10 | inhibition at 10 µM (SK-MEL-28 (melanoma)): < 10%; inhibition at 10 µM (UACC-62 (melanoma)): 35.9%; inhibition at 10 µM (OVCAR-3 (ovarian cancer)): 31.7%; inhibition at 10 µM (OVCAR-5 (ovarian cancer)): 12.5%; inhibition at 10 µM [6]: 45.8%; inhibition at 10 µM (SK-OV-3 (ovarian cancer)): < 10%; inhibition at 10 µM (786-0 (renal cancer)): 25.7%; inhibition at 10 µM (ACHN (renal cancer)): 24.5%; inhibition at 10 µM (CAKI-1 (renal cancer)): 40.2%; inhibition at 10 µM (RXF 393 (renal cancer)): 22.1%; inhibition at 10 µM (TK-10 (renal cancer)): < 10%; inhibition at 10 µM (PC-3 (prostate cancer)): 32%; inhibition at 10 µM (MCF7 (breast cancer)): 37.1%; inhibition at 10 µM (BT-549 (breast cancer)): 50.3% |
| CCc1cccc2cc(C3C=C(c4ccc(OC)c(OC)c4)NC(=S)N3)c(Cl)nc12 (stereo not drawn) [Compound 6b, 4-(2-Chloro-8-ethylquinolin-3-yl)-6-(3,4-dimethoxyphenyl)-3,4-dihydropyrimidine-2(1H)-thione] | 10.7 | 10.5 | 53.3 | < 10 | < 10 | < 10 | < 10 | 22.1 | < 10 | < 10 | 17.2 | < 10 | < 10 | 16.6 | < 10 | < 10 | < 10 | < 10 | < 10 | < 10 | inhibition at 10 µM (SK-MEL-28 (melanoma)): < 10%; inhibition at 10 µM (UACC-62 (melanoma)): 10.3%; inhibition at 10 µM (OVCAR-3 (ovarian cancer)): < 10%; inhibition at 10 µM (OVCAR-5 (ovarian cancer)): < 10%; inhibition at 10 µM [6]: 11.1%; inhibition at 10 µM (SK-OV-3 (ovarian cancer)): < 10%; inhibition at 10 µM (786-0 (renal cancer)): < 10%; inhibition at 10 µM (ACHN (renal cancer)): < 10%; inhibition at 10 µM (CAKI-1 (renal cancer)): 30.2%; inhibition at 10 µM (RXF 393 (renal cancer)): < 10%; inhibition at 10 µM (TK-10 (renal cancer)): < 10%; inhibition at 10 µM (PC-3 (prostate cancer)): < 10%; inhibition at 10 µM (MCF7 (breast cancer)): 15.7%; inhibition at 10 µM (BT-549 (breast cancer)): 12.8% |
| CCc1cccc2cc(C=CC(=O)c3ccc(OC)cc3)c(Cl)nc12 [Compound 3a, 3-(2-Chloro-8-ethylquinolin-3-yl)-1-(4-methoxyphenyl)prop-2-en-1-one] | 45.8 | < 10 | 16.8 | < 10 | < 10 | < 10 | < 10 | 21.1 | < 10 | < 10 | < 10 | < 10 | < 10 | < 10 | 18.9 | < 10 | < 10 | 17.9 | < 10 | < 10 | inhibition at 10 µM (SK-MEL-28 (melanoma)): < 10%; inhibition at 10 µM (UACC-62 (melanoma)): 17.1%; inhibition at 10 µM (OVCAR-3 (ovarian cancer)): < 10%; inhibition at 10 µM (OVCAR-5 (ovarian cancer)): < 10%; inhibition at 10 µM [6]: < 10%; inhibition at 10 µM (SK-OV-3 (ovarian cancer)): < 10%; inhibition at 10 µM (786-0 (renal cancer)): < 10%; inhibition at 10 µM (ACHN (renal cancer)): < 10%; inhibition at 10 µM (CAKI-1 (renal cancer)): 19.3%; inhibition at 10 µM (RXF 393 (renal cancer)): 23.8%; inhibition at 10 µM (TK-10 (renal cancer)): < 10%; inhibition at 10 µM (PC-3 (prostate cancer)): < 10%; inhibition at 10 µM (MCF7 (breast cancer)): 18%; inhibition at 10 µM (BT-549 (breast cancer)): 22.5% |
